The values that follow come from publication PMC9956223, “In Vitro Inhibitory Effects of Polyphenols from Flos sophorae immaturus on α-Glucosidase: Action Mechanism, Isothermal Titration Calorimetry and Molecular Docking Analysis” (Foods, 2023).

The subject of experiment [1] is α-glucosidase (Yeast). As to the kind of experiment: α-glucosidase inhibition type and kinetic analysis (Lineweaver–Burk). The format is biochemical. To be noted: for type of inhibition: Lineweaver–Burk plots; for Ki: binding to α-glucosidase, Lineweaver–Burk. How it is done:
In 5 mL of the reaction system, different concentrations of PNPG (0.5 mL) were mixed with different concentrations of polyphenols (0.1 mL) in a warm bath at 37 °C for 5 min, α-glucosidase solution (1 mL) was added and the absorbance was recorded at 405 nm in real time. Lineweaver–Burk curve method using the inverse of the PNPG concentration 1/(s) as the horizontal coordinate and the inverse of the enzymatic reaction rate 1/v as the vertical coordinate, and the type of inhibition was determined from the characteristics of the graph.

Experiment [2] has as its system α-glucosidase (Yeast). As to the kind of experiment: Fluorescence quenching (Stern–Volmer) and thermodynamic parameters. The experiment is classed as binding. As for the experimental part: An equal volume of polyphenol solution (0.02 mg/mL) was added to 3 mL of α-glucosidase solution (0.05 mg/mL) in 9 separate additions of 10 μL each. The mixture was shaken and then placed in a warm bath at 37 °C for 15 min. The system was scanned for fluorescence at three temperatures (298 K, 303 K, 310 K) using an F-7000 fluorescence spectrometer (Hitachi, Tokyo, Japan) at an excitation wavelength of 280 nm and excitation and emission slits of 5 nm. The fluorescence was scanned in the range of 310–500 nm and the corresponding blank control fluorescence spectra were subtracted to calculate the fluorescence. The Stern–Volmer equation was used to calculate the fluorescence burst constants and determine the type of burst.
Therefore, the spontaneity and binding force of their interactions can be studied by calculating thermodynamic parameters. The values of the free energy change (ΔG), enthalpy change (ΔH) and entropy change (ΔS) can be calculated by Equations (5) and (6). (5) ΔG=[…]=ΔH−TΔS (6) lnKb2/Kb1=[…]ΔH×1/R where R = 8.314 J/(mol·K).

Experiment [3] deals with α-glucosidase (Yeast). As to the kind of experiment: Omission experiment (model, single polyphenol and recombinant solutions). The format is biochemical. To be noted: single polyphenol solution at its content in FSI extract (RU 3.40, QU 0.38, HY 0.34, QI 0.23, KA 0.23 mg/mL). How it is done: (§1) The α-glucosidase inhibitory activity of the FSI samples was measured using the method described by Xiao et al., with minor modifications. Each sample solution (0.2 mL) was mixed with 1 mL of α-glucosidase (0.2 U/mL) of pH = 6.8 phosphate buffer solution. After incubation at 37 °C for 15 min, 0.5 mL of 5 mmol/L PNPG in phosphate buffer solution was added. The reaction was terminated by the addition of 1 mL of 0.1 mol/L sodium Na2CO3 […] at 37 °C for 15 min. The absorbance was measured at 405 nm. The α-glucosidase inhibitory activity was calculated using the following Equation (1):(1) α-Glucosidase inhibitory activity(%)=(ΔAcontrol−ΔAsample/ΔAcontrol)×100
Three different solutions were prepared based on different polyphenol fractions (RU (3.40 mg/mL), QU (0.38 mg/mL), HY (0.34 mg/mL), QI (0.23 mg/mL) and KA (0.23 mg/mL): (1) Model solution: a model solution based on the composition of FSI extract. (2) Single polyphenol solution: a component solution containing only a single polyphenol, prepared based on the polyphenol content in FSI extract. (3) Recombinant solution: a reconstituted solution consisting of the missing individual polyphenol. The α-glucosidase inhibitory activities of the model, single polyphenol and recombinant solutions were determined and the contribution of the missing polyphenols to α-glucosidase activity inhibition was calculated.

The target in experiment [4] is α-glucosidase (Yeast). As to the kind of experiment: α-glucosidase inhibitory activity (PNPG substrate, absorbance at 405 nm). The experiment is classed as biochemical. The following applies: α-glucosidase 0.2 U/mL, pH 6.8, 37 °C. As for the experimental part: as §1

“Also recorded” adds a separate entry of the source. Marks after values point to notes of the source that are not given here.

Broadly, the Ki is a dissociation constant, usually derived from enzyme kinetics or from competition with a known ligand. A low value points to a stronger hold on the target. In the case of `O=c1c(O[C@@H]2O[C@H](CO)[C@H](O)[C@H](O)[C@H]2O)c(-c2ccc(O)c(O)c2)oc2cc(O)cc(O)c12` [Hyperoside, hyperoside], the type of inhibition result in the experiment on α-glucosidase (Yeast) [1] (listed as HY) is on record as “mixed type of inhibition; also recorded: mixed inhibitors”. Further, the results for the Ki on α-glucosidase (Yeast) [1] and on α-glucosidase (Yeast) [1] (listed as HY) were 3.79 mM and 3.91 mM, respectively. Further, the KSV with α-glucosidase (Yeast) [2] (298 K) was 124300 L/mol; in the experiment with α-glucosidase (Yeast) [2] (303 K) it was 89600 L/mol; in the experiment with α-glucosidase (Yeast) [2] (310 K) it was 111700 L/mol. Further, the Kq with α-glucosidase (Yeast) [2] (298 K) turned out to be 1.243e+13 M⁻¹ s⁻¹; in the experiment on α-glucosidase (Yeast) [2] (303 K), 8.96e+12 M⁻¹ s⁻¹; in the experiment with α-glucosidase (Yeast) [2] (310 K), 1.117e+13 M⁻¹ s⁻¹. Besides, the “α-Glucosidase Inhibition Rate of Omitted Compounds” value (“α-Glucosidase Inhibition Rate” below) in the experiment on α-glucosidase (Yeast) [3] is 75.00 ± 0.32%. Moreover, the IC50 against α-glucosidase (Yeast) [4] is reported as 12.77 ± 0.07 ^d mg/mL.
In turn, `COc1cc(-c2oc3cc(O)cc(O)c3c(=O)c2O)ccc1O` [Isorhamnetin, isorhamnetin] returned a Ki at α-glucosidase (Yeast) [1] of 15.1 mM. Moreover, on α-glucosidase (Yeast) [4], the IC50 is given as 255.00 ± 0.11 ^g mg/mL.
With `O=c1c(O)c(-c2ccc(O)cc2)oc2cc(O)cc(O)c12` [Kaempferol, kaempferol], the type of inhibition result with α-glucosidase (Yeast) [1] (listed as KA) is “mixed type of inhibition; also recorded: mixed inhibitors”. Further, the KSV stood at 222300 L/mol in the experiment with α-glucosidase (Yeast) [2] (298 K), 493300 L/mol with α-glucosidase (Yeast) [2] (303 K) and 424600 L/mol with α-glucosidase (Yeast) [2] (310 K). Besides, the results for the Kq in the experiment on α-glucosidase (Yeast) [2] (298 K), in the experiment on α-glucosidase (Yeast) [2] (303 K) and with α-glucosidase (Yeast) [2] (310 K) were 2.223e+13 M⁻¹ s⁻¹, 4.933e+13 M⁻¹ s⁻¹ and 4.246e+13 M⁻¹ s⁻¹, respectively. Besides, the “α-Glucosidase Inhibition Rate” value in the experiment on α-glucosidase (Yeast) [3] worked out at 81.00 ± 0.12%.
Compound `O=C(O)c1ccc(O)c(O)c1` [Protocatechuic acid, protocatechuic acid] gave an inhibition constant (Ki) on α-glucosidase (Yeast) [1] of 17.7 mM. Further, the IC50 against α-glucosidase (Yeast) [4] was 369.00 ± 0.11 ^h mg/mL.
On to `O=c1c(O)c(-c2ccc(O)c(O)c2)oc2cc(O)cc(O)c12` [Quercetin, quercetin], for which the type of inhibition entry in the experiment with α-glucosidase (Yeast) [1] (listed as QU) is recorded as “mixed type of inhibition; also recorded: mixed inhibitors”. For the same compound, the KSV in the experiment with α-glucosidase (Yeast) [2] (298 K) was 107100 L/mol; with α-glucosidase (Yeast) [2] (303 K), 75200 L/mol; with α-glucosidase (Yeast) [2] (310 K), 55500 L/mol. The Kq came to 1.071e+13 M⁻¹ s⁻¹ in the experiment on α-glucosidase (Yeast) [2] (298 K), 7.52e+12 M⁻¹ s⁻¹ with α-glucosidase (Yeast) [2] (303 K) and 5.55e+12 M⁻¹ s⁻¹ in the experiment on α-glucosidase (Yeast) [2] (310 K). In addition, the “α-Glucosidase Inhibition Rate” value in the experiment with α-glucosidase (Yeast) [3] is given as 89.00 ± 0.25%.
For `C[C@@H]1O[C@@H](Oc2c(-c3ccc(O)c(O)c3)oc3cc(O)cc(O)c3c2=O)[C@H](O)[C@H](O)[C@H]1O` [Quercitrin, quercitrin], the type of inhibition entry in the experiment on α-glucosidase (Yeast) [1] (listed as QI) is given as “mixed type of inhibition; also recorded: mixed inhibitors”. Affinity on α-glucosidase (Yeast) [1] was put at a Ki of 5.31 mM. The KSV in the experiment with α-glucosidase (Yeast) [2] (298 K) was determined as 74500 L/mol; in the experiment with α-glucosidase (Yeast) [2] (303 K) it was 78700 L/mol; with α-glucosidase (Yeast) [2] (310 K), 54500 L/mol. The Kq with α-glucosidase (Yeast) [2] (298 K) was found to be 7.45e+12 M⁻¹ s⁻¹; with α-glucosidase (Yeast) [2] (303 K) it was 7.87e+12 M⁻¹ s⁻¹; in the experiment on α-glucosidase (Yeast) [2] (310 K), 5.45e+12 M⁻¹ s⁻¹. In the experiment on α-glucosidase (Yeast) [3], the “α-Glucosidase Inhibition Rate” value is on record as 77.00 ± 0.20%. In addition, at α-glucosidase (Yeast) [4], the IC50 was 25.37 ± 0.13 ^e mg/mL.
Regarding `C[C@@H]1O[C@@H](OC[C@H]2O[C@@H](Oc3c(-c4ccc(O)c(O)c4)oc4cc(O)cc(O)c4c3=O)[C@H](O)[C@@H](O)[C@@H]2O)[C@H](O)[C@H](O)[C@H]1O` [Rutin], in the experiment on α-glucosidase (Yeast) [1] (listed as RU), the type of inhibition result is “mixed type of inhibition; also recorded: mixed inhibitors”. Further, the KSV in the experiment with α-glucosidase (Yeast) [2] (298 K) was found to be 45000 L/mol; with α-glucosidase (Yeast) [2] (303 K) it was 93700 L/mol; with α-glucosidase (Yeast) [2] (310 K) it was 93400 L/mol. For the same compound, the Kq turned out to be 4.5e+12 M⁻¹ s⁻¹ with α-glucosidase (Yeast) [2] (298 K), 9.37e+12 M⁻¹ s⁻¹ in the experiment on α-glucosidase (Yeast) [2] (303 K) and 9.34e+12 M⁻¹ s⁻¹ in the experiment with α-glucosidase (Yeast) [2] (310 K). Besides, the “α-Glucosidase Inhibition Rate” value with α-glucosidase (Yeast) [3] is 69.00 ± 0.11%.
